GI50 and TGI data for 11 molecules are collected here from PubChem BioAssay (NCI).

“And” between values parts separate entries of the source, which are not always exact repeats. Equal values may be shown once.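 Step 1: Grow cells in 96-well plates. Step 2: Expose to compound for 48 hours at 5 concentrations. Step 3: Interpolate endpoints linearly; if unreached, use highest concentration. The concentration for 50% growth inhibition is given as GI50. TGI: total growth inhibition.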

Among the test systems are SF-539 CNS; RPMI-8226 leukemia; SF-268 CNS; SK-MEL-28 melanoma; HOP-92 NSCLC; SK-MEL-5 melanoma; SW-620 colon; UACC-257 melanoma; CCRF-CEM leukemia; UO-31 renal.
Holding throughout (test): NCI-60 cell line screen, 48 h

Consider `COC(=O)CC(C(C(C)=O)C(=O)OCc1ccccc1)N1C(=O)OC(c2ccccc2)C1c1ccccc1` (stereo not given), for which the GI50 is 24.1 µM and > 100 µM with SF-539 CNS; 84.5 µM and 39.8 µM in the assay on HOP-92 NSCLC; 23.6 µM and 55.3 µM in the assay on UACC-257 melanoma. Further, the TGI in the assay on SF-539 CNS, in the assay on RPMI-8226 leukemia, in the assay on SF-268 CNS, in the assay with SK-MEL-28 melanoma, with HOP-92 NSCLC and in the assay with SK-MEL-5 melanoma was more than 100 µM in each case. Besides, the TGI in the assay on SW-620 colon, in the assay with UACC-257 melanoma and with CCRF-CEM leukemia was more than 100 µM throughout.

For the molecule `C=C(CO)CC(/C=C(\C)CC/C=C(\C)CCl)OC(C)=O` (stereo not given), the TGI in the assay with SF-539 CNS, in the assay on RPMI-8226 leukemia, in the assay with SF-268 CNS, in the assay on UO-31 renal, in the assay with SK-MEL-28 melanoma and in the assay on HOP-92 NSCLC was more than 100 µM in each case. In addition, the TGI in the assay with SK-MEL-5 melanoma, with SW-620 colon and in the assay on CCRF-CEM leukemia was more than 100 µM throughout.

As for `Cc1cccc(Nc2cc(Cl)nc(SCC(=O)O)n2)c1C`, the TGI with SF-539 CNS, in the assay on RPMI-8226 leukemia, in the assay with SK-MEL-28 melanoma, with HOP-92 NSCLC, in the assay with SK-MEL-5 melanoma and in the assay with SW-620 colon was more than 100 µM throughout. In addition, the TGI in the assay on UACC-257 melanoma and in the assay with CCRF-CEM leukemia was more than 100 µM throughout.

On to `COc1cc(-c2cc3ncccc3c3[nH]c(=O)c4cccnc4c23)cc(OC)c1OC`, for which the GI50 in the assay on SF-539 CNS was 0.488 µM; in the assay with RPMI-8226 leukemia, 1.3 µM; with SF-268 CNS it was 2.16 µM; in the assay on UO-31 renal it was 1.09 µM; in the assay with SK-MEL-28 melanoma, 0.957 µM; in the assay with HOP-92 NSCLC it was 12.2 µM. The GI50 with SK-MEL-5 melanoma is 0.51 µM; in the assay with SW-620 colon it was 0.493 µM; in the assay with CCRF-CEM leukemia, 0.623 µM. The TGI in the assay on SF-539 CNS is 5.84 µM; in the assay on RPMI-8226 leukemia, 47.5 µM; in the assay on SF-268 CNS, more than 100 µM; in the assay on UO-31 renal, more than 100 µM; in the assay on SK-MEL-28 melanoma it was more than 100 µM; in the assay on HOP-92 NSCLC, more than 100 µM. Further, the TGI was 3.17 µM with SK-MEL-5 melanoma, more than 100 µM in the assay with SW-620 colon and more than 100 µM with CCRF-CEM leukemia.

Consider `O=c1[nH]c(=O)n(C2CC(O)C(CO)O2)cc1COCC(F)(F)F` (stereo not given), for which the TGI in the assay on SF-539 CNS, in the assay on RPMI-8226 leukemia, with SF-268 CNS, in the assay with UO-31 renal, with HOP-92 NSCLC and with SK-MEL-5 melanoma was more than 100 µM in each case. The TGI with SW-620 colon, with UACC-257 melanoma and in the assay on CCRF-CEM leukemia was more than 100 µM each time.

In the case of `CC(=O)O[C@H](C[C@H](C(C)C)N(C)C(=O)[C@@H](NC(=O)[C@H]1CCCCN1C)C(C)C)c1cccc(C(=O)N[C@@H](Cc2ccccc2)C[C@H](C)C(=O)O)n1`, the GI50 with SF-539 CNS is 0.0193 µM; in the assay on RPMI-8226 leukemia, 0.0213 µM; in the assay with SF-268 CNS, 0.05 µM; with UO-31 renal it was 0.33 µM; in the assay on HOP-92 NSCLC, 0.0183 µM; with SK-MEL-5 melanoma it was 0.0155 µM. The GI50 in the assay on SW-620 colon was less than 0.0222 µM; in the assay with CCRF-CEM leukemia, 0.0175 µM. The TGI was 0.0626 µM in the assay with SF-539 CNS; more than 25 µM in the assay on RPMI-8226 leukemia; more than 25 µM in the assay with SF-268 CNS; more than 25 µM with UO-31 renal; more than 25 µM with HOP-92 NSCLC; 0.36 µM with SK-MEL-5 melanoma. Also, the TGI with SW-620 colon and with CCRF-CEM leukemia was more than 25 µM each time.

Take `CC(=O)NC1=C(N)C(=O)c2ccccc2C1=O`: the TGI in the assay on SF-539 CNS, in the assay on RPMI-8226 leukemia, in the assay with SF-268 CNS, with UO-31 renal, with HOP-92 NSCLC and with SK-MEL-5 melanoma was more than 100 µM each time. The results for the TGI with SW-620 colon, in the assay with UACC-257 melanoma and in the assay with CCRF-CEM leukemia were 29.2 µM, more than 100 µM and more than 100 µM, respectively.

In the case of `CCn1c(CSc2nc(-c3ccccc3)c(-c3ccccc3)[nH]2)n[nH]c1=S`, the TGI in the assay on SF-539 CNS, in the assay with RPMI-8226 leukemia, with SF-268 CNS, in the assay on UO-31 renal, with SK-MEL-28 melanoma and in the assay with HOP-92 NSCLC was more than 100 µM each time. Besides, the TGI in the assay on SK-MEL-5 melanoma, with UACC-257 melanoma and in the assay with CCRF-CEM leukemia was more than 100 µM in each case.

For the molecule `Cc1ccc(C2C(Cl)C(=O)N2NC(=O)c2ccc(N)cc2)cc1` (stereo not given), the TGI with SF-539 CNS was determined as 41.6 µM; in the assay with RPMI-8226 leukemia it was 78.9 µM; in the assay with UO-31 renal, 86.5 µM; in the assay with SK-MEL-28 melanoma, 26 µM; with HOP-92 NSCLC it was 28.5 µM; with SK-MEL-5 melanoma it was 29.7 µM. In addition, the TGI in the assay with SW-620 colon is 41.3 µM; in the assay on UACC-257 melanoma, 66.1 µM; with CCRF-CEM leukemia, 39.2 µM.

Consider `Cn1cncc1-c1c(F)cncc1NC(=O)c1c(N)nn2cc(F)cnc12`, for which the GI50 with RPMI-8226 leukemia was 1.53 µM; in the assay with SF-268 CNS, 4.04 µM; in the assay on UO-31 renal, 0.303 µM; in the assay with SK-MEL-28 melanoma, 6.52 µM; in the assay on HOP-92 NSCLC it was 4.43 µM; in the assay with SK-MEL-5 melanoma, 1.23 µM. The GI50 is 4.12 µM with SW-620 colon, 20.9 µM with UACC-257 melanoma and 0.0723 µM in the assay with CCRF-CEM leukemia. The TGI with RPMI-8226 leukemia stood at 9.4 µM; in the assay on SF-268 CNS, 46.2 µM; with UO-31 renal, 60.5 µM; with SK-MEL-28 melanoma, 86.8 µM; with HOP-92 NSCLC it was 69.4 µM; in the assay with SK-MEL-5 melanoma it was 2.48 µM. For the same molecule, the TGI in the assay with SW-620 colon was more than 100 µM; with UACC-257 melanoma it was more than 100 µM; in the assay with CCRF-CEM leukemia it was 22.8 µM.

Regarding `COc1cc(CN(c2ccc(C)cc2)C2OC(=O)c3ccccc32)cc(OC)c1OC` (stereo not given), the GI50 with SF-539 CNS is 0.393 µM; with RPMI-8226 leukemia, 0.455 µM; with SF-268 CNS, 1.97 µM; in the assay with UO-31 renal, 2.7 µM; in the assay on SK-MEL-28 melanoma it was 0.855 µM; in the assay with HOP-92 NSCLC, 0.449 µM. Moreover, the GI50 was 0.271 µM with SK-MEL-5 melanoma, 3.41 µM in the assay with UACC-257 melanoma and 0.375 µM in the assay with CCRF-CEM leukemia. Also, the TGI with SF-539 CNS, with RPMI-8226 leukemia, in the assay on SF-268 CNS, in the assay on UO-31 renal, with SK-MEL-28 melanoma and in the assay on HOP-92 NSCLC was more than 100 µM throughout. The TGI in the assay with SK-MEL-5 melanoma was 1.76 µM; in the assay on UACC-257 melanoma, more than 100 µM; in the assay with CCRF-CEM leukemia, more than 100 µM.
